This assay has as its target T1, IRAK4 (Homo sapiens, UniProt Q9NWZ3).
T1 sequence (Q9NWZ3 1-460): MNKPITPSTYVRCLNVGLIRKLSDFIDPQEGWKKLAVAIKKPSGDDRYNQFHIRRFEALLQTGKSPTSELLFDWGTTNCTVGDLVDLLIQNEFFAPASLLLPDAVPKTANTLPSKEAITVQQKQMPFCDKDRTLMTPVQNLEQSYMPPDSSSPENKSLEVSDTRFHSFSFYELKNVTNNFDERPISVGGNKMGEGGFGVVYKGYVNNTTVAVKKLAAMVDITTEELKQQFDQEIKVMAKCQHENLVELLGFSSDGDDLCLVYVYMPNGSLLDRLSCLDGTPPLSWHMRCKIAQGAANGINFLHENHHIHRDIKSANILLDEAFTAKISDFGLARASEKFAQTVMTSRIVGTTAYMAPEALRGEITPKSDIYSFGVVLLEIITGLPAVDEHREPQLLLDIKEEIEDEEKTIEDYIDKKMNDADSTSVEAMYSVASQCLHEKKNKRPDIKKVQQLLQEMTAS
In words: Degradation of IRAK4 in THP1 cells, Western blot. Details: Degradation of IRAK4 in THP1 by compound; host or cells: THP-1. It counts as cell-based. The conditions noted are these: THP-1 cells, 24 hours of incubation; for DC50: IRAK4 protein by Western blot, read-out: DC50; for Dmax: maximum degradation rate, read-out: Dmax. How it is done:
After 24 hours of incubation, the cells were collected into 1.5 mL centrifuge tubes and centrifuged at 1,000 rpm for 5 minutes. […] The supernatants were collected, and the IRAK4 protein levels were respectively detected by Western blot (WB). The total protein concentration in the cell lysate supernatant was determined using a BCA protein quantification kit (NCM). Based on the total protein concentration detected by BCA, the samples were adjusted to 2 μg/μL using cell lysis buffer and 5×SDS-PAGE protein loading buffer (Beyotime), heated at 95°C for 5 minutes in a metal bath, and then placed on ice for an ice bath for 5 minutes before being used as the loading samples for Western blot analysis. Protein electrophoresis was performed using a 10% SDS-PAGE gel with a loading volume of 20 μL (total protein 40 μg) and Tris-SDS electrophoresis at a constant voltage of 80 V. After electrophoresis, the proteins on the gel were transferred to a 0.2 μm PVDF membrane (Immobilon) using a semi-dry transfer method at 0.5 A and 20 V for 60 minutes. After transfer, the membrane was placed in 5% skimmed milk and incubated at rt for 2 hours. After blocking, the PVDF membrane was incubated with primary antibody against IRAK4 (Abcam) at 4°C overnight. […] The color development and protein band imaging were performed using a chemiluminescence imaging system ([…] Technology Co., Ltd.). The protein bands were analyzed for grayscale values using Image J analysis software. The corrected grayscale values for each sample were calculated and then compared with those of the control group treated with DMSO alone to calculate the degradation rate.
In general terms: In western blotting, separated proteins are transferred to a membrane and probed.

Where a name gives a salt, the structure may show the parent alone. Bounds are passed on as bounds.

In the case of `Cn1c(=O)n(C2CCC(=O)NC2=O)c2cccc(C(=O)N3CCC4(CCN(Cc5ccc(-n6cc(NC(=O)c7cccc(-c8ccn[nH]8)n7)c(S(N)(=O)=O)n6)cc5)C4)CC3)c21` (stereo not shown) [Compound A357, N-(1-(4-((8-(1-(2,6-Dioxopiperidin-3-yl)-3-methyl-2-oxo-2,3-dihydro-1H-benzo[d]imidazole-4-carbonyl)-2,8-diazaspiro[4.5]decan-2-yl)methyl)phenyl)-3-sulfamoyl-1H-pyrazol-4-yl)-6-(1H-pyrazol-5-yl)picolinamide], the DC50 (usually the concentration at which degradation of the target reaches its halfway point) is below 100 nM and the Dmax (in general, the greatest extent of degradation seen) is above 60%.
The matching figures for `NC(=O)c1nn(-c2ccc(N3CCN(CC4CCN(c5ccc(OC6CCC(=O)NC6=O)cn5)CC4)CC3)cc2)cc1NC(=O)c1cccc(C(F)(F)F)n1` (stereo not shown) [Compound A377, N-(3-Carbamoyl-1-(4-(4-((1-(5-((2,6-dioxopiperidin-3-yl)oxy)pyridin-2-yl)piperidin-4-yl)methyl)piperazin-1-yl)phenyl)-1H-pyrazol-4-yl)-6-(trifluoromethyl)picolinamide]: below 100 nM and above 60%.
The matching figures for `NS(=O)(=O)c1nn(-c2ccc(N3CCN(CC4CCN(c5ccc(NC6CCC(=O)NC6=O)cc5F)CC4)CC3)cc2)cc1NC(=O)c1cccc(-c2ccn[nH]2)n1` (stereo not shown) [Compound A325, N-(1-(4-(4-((1-(-4-((2,6-dioxopiperidin-3-yl)amino)-2-fluorophenyl)piperidin-4-yl)methyl)piperazin-1-yl)phenyl)-3-sulfamoyl-1H-pyrazol-4-yl)-6-(1H-pyrazol-5-yl)picolinamide]: below 100 nM and above 60%.
The matching figures for `Cn1c(=O)n(C2CCC(=O)NC2=O)c2cccc(N3CCC(C(=O)N4CCN(c5ccc(-n6cc(NC(=O)c7cccc(C(F)(F)F)n7)c(C(N)=O)n6)cc5)CC4)CC3)c21` (stereo not shown) [Compound A368, N-(3-Carbamoyl-1-(4-(4-(1-(1-(2,6-dioxopiperidin-3-yl)-3-methyl-2-oxo-2,3-dihydro-1H-benzo[d]imidazol-4-yl)piperidine-4-carbonyl)piperazin-1-yl)phenyl)-1H-pyrazol-4-yl)-6-(trifluoromethyl)picolinamide]: below 100 nM and above 60%.
Regarding `Cn1c(=O)n(C2CCC(=O)NC2=O)c2cccc(N3CCC(CN4CCN(c5ccc(-n6cc(NC(=O)c7cccc(C(F)(F)F)n7)c(C(N)=O)n6)cc5)CC4)C3)c21` (stereo not shown) [Compound A305, N-(3-carbamoyl-1-(4-(4-((1-(1-(2,6-dioxopiperidin-3-yl)-3-methyl-2-oxo-2,3-dihydro-1H-benzo[d]imidazol-4-yl)pyrrolidin-3-yl)methyl)piperazin-1-yl)phenyl)-1H-pyrazol-4-yl)-6-(trifluoromethyl)picolinamide], the DC50 was in the range of 100 to 1000 nM and the Dmax was 40 to 60%.
On to `CC(C)(O)c1nn(-c2ccc(N3CCN(CC4CCN(c5ccc(NC6CCC(=O)NC6=O)cc5F)CC4)CC3)cc2)cc1NC(=O)c1cccc(C#N)n1` (stereo not shown) [Compound A386, 6-Cyano-N-(1-(4-(4-((1-(4-((2,6-dioxopiperidin-3-yl)amino)-2-fluorophenyl)piperidin-4-yl)methyl)piperazin-1-yl)phenyl)-3-(2-hydroxypropan-2-yl)-1H-pyrazol-4-yl)picolinamide], for which the DC50 is above 1000 nM and the Dmax is below 40%.
The matching figures for `Cn1c(=O)n(C2CCC(=O)NC2=O)c2cccc(NCCN3CC4CN(Cc5ccc(-n6cc(NC(=O)c7cccc(-c8ccn[nH]8)n7)c(S(N)(=O)=O)n6)cc5)CC4C3)c21` (stereo not shown) [Compound A338]: below 100 nM and above 60%.
The matching figures for `NC(=O)c1nn(-c2ccc(N3CCN(C(=O)C4CCN(c5cc(F)c(C6CCC(=O)NC6=O)c(F)c5)C4)CC3)cc2)cc1NC(=O)c1cccc(C(F)(F)F)n1` (stereo not shown) [Compound A414]: below 100 nM and above 60%.
The matching figures for `Cn1c(=O)n(C2CCC(=O)NC2=O)c2cccc(N3CCC(CN4CCN(c5ccc(-n6cc(NC(=O)c7cccc(C(F)(F)F)n7)c(C(N)=O)n6)cc5)CC4)C(F)(F)C3)c21` (stereo not shown) [Compound A298, N-(3-Carbamoyl-1-(4-(4-((1-(1-(2,6-dioxopiperidin-3-yl)-3-methyl-2-oxo-2,3-dihydro-1H-benzo[d]imidazol-4-yl)-3,3-difluoropiperidin-4-yl)methyl)piperazin-1-yl)phenyl)-1H-pyrazol-4-yl)-6-(trifluoromethyl)picolinamide]: below 100 nM and above 60%.
Take `Cn1c(=O)n(C2CCC(=O)NC2=O)c2ccc(N3CCC(CN4CCN(c5ccc(-n6cc(NC(=O)c7cccc(-c8ccn[nH]8)n7)c(S(N)(=O)=O)n6)cc5)CC4)CC3)cc21` (stereo not shown) [Compound A326, N-[3-(aminodioxyylidene-λ6-thio)-1-{4-[4-({1-[1-(2,6-dioxopiperidin-3-yl)-3-methyl-2-oxobenzo[d]imidazol-5-yl]piperidin-4-yl}methyl)piperazin-1-yl]phenyl}pyrazol-4-yl]-6-(2H-pyrazol-3-yl)pyridine-2-carboxamide]: the DC50 was below 100 nM and the Dmax is above 60%.
The matching figures for `Cn1c(=O)n(C2CCC(=O)NC2=O)c2cccc(N3CCC(CN4CCN(C5CCC(n6cc(NC(=O)c7cccc(C(F)(F)F)n7)c(C(N)=O)n6)CC5)CC4)CC3)c21` (stereo not shown) [Compound A380]: below 100 nM and above 60%.
On the same counts, the results for `Cn1c(=O)n(C2CCC(=O)NC2=O)c2cccc(NCCN3CC4(C3)CN(C(=O)c3ccc(-n5cc(NC(=O)c6cccc(-c7ccn[nH]7)n6)c(S(N)(=O)=O)n5)cc3)C4)c21` (stereo not shown) [Compound A343] are below 100 nM and above 60%.
On the same counts, the results for `NC(=O)c1nn(-c2ccc(N3CCN(CC4CCN(c5ccc(NC6CCC(=O)NC6=O)cc5F)C4)CC3)cc2)cc1NC(=O)c1cccc(C(F)(F)F)n1` (stereo not shown) [Compound A361, N-(3-Carbamoyl-1-(4-(4-((1-(4-((2,6-dioxopiperidin-3-yl)amino)-2-fluorophenyl)pyrrolidin-3-yl)methyl)piperazin-1-yl)phenyl)-1H-pyrazol-4-yl)-6-(trifluoromethyl)picolinamide formate] are 100 to 1000 nM and 40 to 60%.
Turning to `COc1ccc(C(=O)N2CCC(CN3CCN(c4ccc(-n5cc(NC(=O)c6cccc(-c7ccn[nH]7)n6)c(S(N)(=O)=O)n5)cc4)CC3)C2)cc1N1CCC(=O)NC1=O` (stereo not shown) [Compound A329, N-(1-(4-(4-((1-(3-(2,4-dioxotetrahydropyrimidin-1(2H)-yl)-4-methoxybenzoyl)pyrrolidin-3-yl)methyl)piperazin-1-yl)phenyl)-3-sulfamoyl-1H-pyrazol-4-yl)-6-(1H-pyrazol-5-yl)picolinamide trifluoroacetate], the half-maximal degradation concentration (DC50) is below 100 nM and the Dmax is above 60%.
The matching figures for `N#Cc1cccc(C(=O)Nc2cn(-c3ccc(N4CCN(C5CCN(c6ccc(NC7CCC(=O)NC7=O)cc6F)CC5)CC4)cc3)nc2C(N)=O)n1` (stereo not shown) [Compound A388, N-(3-Carbamoyl-1-(4-(4-(1-(4-((2,6-Dioxopiperidin-3-yl)amino)-2-fluorophenyl)piperidin-4-yl)piperazin-1-yl)phenyl)-1H-pyrazol-4-yl)-6-cyanopicolinamide]: above 1000 nM and below 40%.
On the same counts, the results for `COc1cc(NC2CCC(=O)NC2=O)ccc1N1CCC(CN2CCN(c3ccc(-n4cc(NC(=O)c5cccc(C(F)(F)F)n5)c(C(N)=O)n4)cc3)CC2)CC1` (stereo not shown) [Compound A423, N-(3-Carbamoyl-1-(4-(4-((1-(4-((2,6-dioxopiperidin-3-yl)amino)-2-methoxyphenyl)piperidin-4-yl)methyl)piperazin-1-yl)phenyl)-1H-pyrazol-4-yl)-6-(trifluoromethyl)picolinamide] are 100 to 1000 nM and above 60%.
The matching figures for `NC(=O)c1nn(-c2ccc(N3CCN(CCC4CCN(C(=O)c5ccc(F)c(N6CCC(=O)NC6=O)c5)CC4)CC3)cc2)cc1NC(=O)c1cccc(C(F)(F)F)n1` [Compound A402, N-(3-Carbamoyl-1-(4-(4-(2-(1-(3-(2,4-dioxotetrahydropyrimidin-1(2H)-yl)-4-fluorobenzoyl)piperidin-4-yl)ethyl)piperazin-1-yl)phenyl)-1H-pyrazol-4-yl)-6-(trifluoromethyl)picolinamide trifluoroacetate]: below 100 nM and above 60%.

(Values after patent EP4763839A1 (Pamplona Therapeutics (Shenzhen) Co., Ltd., priority 2023, dated 2025).)
